Results on two substances are retold here after patent US20020150990A1, “Hepatitis C virus peptides” (priority 1992, published 2002).

Ends that are not written are not given here.

For experiment [1], the system named is antibodies against HCV. Kind of experiment: PEPSCAN analysis of overlapping octameric peptides of the HCV core protein N-terminal region with HCV-seropositive sera. It counts as binding, human. To be noted: for Absorbance Units for different sera: read at 405 nm. From the text: The N-terminal 97 amino acid residues of HCV Core protein SEQ ID NO: 8 was mapped with PEPSCAN analysis. This process involved the serological analysis of sequentially overlapping peptides which spanned the region of interest, to identify epitopic domains. Ninety overlapping octameric peptides were synthesized on polypropylene pin supports according to the manufacturer's instructions (Cambridge Research Biochemicals), such that each peptide overlapped with the preceding sequence by the seven N-terminal residues, and with the subsequent peptide by the seven C-terminal residues. Serum or IgG purified from the serum of individuals confirmed to be seropositive for HCV were used to screen the peptides.
The assay procedure followed was performed basically as described in the manufacturers instruction manual. The time and temperature of the test antibody incubation differed from that prescribed, thereby decreasing the time taken for each assay.
Sera: A total of 16 sera were assayed by PEPSCAN. These consisted of 12 sera from paid U.S. Donors which were identified as being positive for antibodies against HCV in routine screening at the site of donation. The remaining four sera were from patients diagnosed as having non-A non-B hepatitis, and which were subsequently shown to contain antibodies to HCV. Sera were screened either as the crude serum fraction, or as a caprylic acid preparation. Caprylic acid purification of IgG from the sera was performed as described by Stienbuch and Audran (1969) Arch. Biochem. Biophys. 134, 279-284.
Assay: The assay format involves sequentially incubating the various pins in microwell plates containing blocking, test antibody, conjugate, and substrate solutions. The immune complex builds up on the pin with the enzyme labelled conjugate being immobilized on the bound anti-peptide antibody from the test serum. When the pin is then immersed in substrate, the enzyme brings about the colour change which is used to quantify the amount of anti-peptide antibody bound.
Blocking: Pins are immersed in 200 μl of Supercocktail (1% Ovalbumin, 1% bovine serum albumin in 0.15M phosphate buffered saline pH 7.2—0.1% Tween 20) and left to stand at room temperature for 1 hour.
Test antibody: The test antibody is diluted between 1/200 (IgG) and 1/1000 (serum) in supercocktail. The pins are then stood in this solution (175 μl/well) at 37° C. for 1 hour. After this incubation the pins are washed four times in 0.15M phosphate buffered saline pH 7.2—0.05% Tween 20, each at room temperature for 10 minutes.
Conjugate: Rabbit anti-human IgG coupled to horseradish peroxidase is diluted 1/1000 in supercocktail. The peptide bearing pins are then stood in this solution at room temperature for 1 hour. Once again the pins are then washed four times as above.
Substrate: The substrate solution is made up fresh for each assay. To 100 ml of 0.1M phosphate, 0.08M citrate buffer pH 4.0 is dissolved 50 mg of 2,2′-AZINO-bis (3-ethylbenzthiazo-linsulphonic acid (ABTS) and 0.3 μl/ml 30% hydrogen peroxide is added. The pins are immersed in the wells containing substrate solution (150 μl/well) and incubated at room temperature in the dark. Once sufficient colour has developed the reaction is stopped by removing the pins. The plates are then read immediately in a spectrophotometric plate reader at a wavelength of 405 nm. The absorbance values are then plotted against pin number. The epitopic domains are then defined as the continuous sequence of amino acids common to all positive pins in the domain i.e.

Experiment [2] deals with antibodies against HCV. Kind of experiment: Replacement Net analysis of the core immunodominant epitope YLLPRR with 12 paid donor human sera. The class given is binding. The note with it: n = 12 sera; for Frequency of relative signal strength: All: acceptable when signal 80% of the parent sequence or greater; for Frequency of relative signal strength: 2nd-5th / Frequency of relative signal strength: 6th-10th / Frequency of relative signal strength: Below 10th / Frequency of relative signal strength: Highest: rank of replacement residue at that position. The procedure: The Replacement Net Method was used to sequentially replace each of the constituent amino acid residues in the epitope with each of the other genetically encoded amino acids.
For Replacement Net analysis, a parent sequence is entered into the Epitope Mapping Software provided by Cambridge Research Biochemicals, and a set of replacement peptides is generated. This process was performed for the six amino acid residue immunodominant core epitope of HCV. The peptides were synthesized on polypropylene pins as directed by the manufacturer (CRB). The Assay format was identical to that followed for PEPSCAN above.
The Replacement Net of the core immunodominant epitope sequence Tyr-Leu-Leu-Pro-Arg-Arg (YLLPRR) (SEQ ID NO: 1 and 2) with the 12 paid donor human sera as described above was considered.
For each position within the epitope, the frequency of each replacement residue as an acceptable replacement for the parent sequence is given. Replacement residues were deemed acceptable when the signal of the new peptide was 80% of the parent sequence or greater.
The residue in italics is the parent sequence.

The mark [3] stands for this setting: listed as 2-Leucine L, epitope position 2-Leucine, residue L.
The mark [4] stands for this setting: listed as 3-Leucine L, epitope position 3-Leucine, residue L.
[5] abbreviates: listed as 5-Arginine R, epitope position 5-Arginine, residue R.
[6] abbreviates: listed as 6-Arginine R, epitope position 6-Arginine, residue R.

On to YLLPRR [YLLPRR], for which the “Detection of the epitope by sera” value in the experiment on antibodies against HCV [1] (16 sera assayed by PEPSCAN) is given as “detected to a greater or lesser extent by all of the sera tested”. For the same substance, the “Frequency of relative signal strength: All” value in the experiment on antibodies against HCV [2] (listed as 1-Tyrosine Y) is 11; in the experiment with antibodies against HCV [2] (setting [3]), 8; in the experiment on antibodies against HCV [2] (setting [4]), 3; with antibodies against HCV [2] (listed as 4-Proline P) it was 5; with antibodies against HCV [2] (setting [5]), 10; with antibodies against HCV [2] (setting [6]) it was 11. The “Frequency of relative signal strength: 2nd-5th” value in the experiment on antibodies against HCV [2] (listed as 1-Tyrosine Y) is 3; in the experiment on antibodies against HCV [2] (setting [3]), 2; in the experiment with antibodies against HCV [2] (setting [4]), 0; in the experiment with antibodies against HCV [2] (listed as 4-Proline P) it was 1; with antibodies against HCV [2] (setting [5]), 2; in the experiment on antibodies against HCV [2] (setting [6]), 1. For the same substance, the “Frequency of relative signal strength: 6th-10th” value came to 5 with antibodies against HCV [2] (listed as 1-Tyrosine Y); 3 in the experiment with antibodies against HCV [2] (setting [3]); 1 in the experiment on antibodies against HCV [2] (setting [4]); 1 in the experiment with antibodies against HCV [2] (listed as 4-Proline P); 1 in the experiment on antibodies against HCV [2] (setting [5]); 5 in the experiment with antibodies against HCV [2] (setting [6]). For the same substance, the “Frequency of relative signal strength: Below 10th” value in the experiment on antibodies against HCV [2] (listed as 1-Tyrosine Y) is listed as 1; with antibodies against HCV [2] (setting [3]), 2; in the experiment with antibodies against HCV [2] (setting [4]), 0; in the experiment with antibodies against HCV [2] (listed as 4-Proline P) it was 0; with antibodies against HCV [2] (setting [5]) it was 7; in the experiment on antibodies against HCV [2] (setting [6]), 3. For the same substance, the “Frequency of relative signal strength: Highest” value in the experiment with antibodies against HCV [2] (listed as 1-Tyrosine Y) was determined as 2; with antibodies against HCV [2] (setting [3]), 1; in the experiment with antibodies against HCV [2] (setting [4]), 2; in the experiment with antibodies against HCV [2] (listed as 4-Proline P), 3; with antibodies against HCV [2] (setting [5]), 0; in the experiment with antibodies against HCV [2] (setting [6]) it was 2.

Consider “VYLLPRRG (pin support) [Val-Tyr-Leu-Leu-Pro-Arg-Arg-Gly, overlapping octameric peptide of HCV core protein on pin support]”, for which the “Absorbance Units for different sera” value in the experiment on antibodies against HCV [1] (serum 65221) is on record as 769 Absorbance Units; in the experiment on antibodies against HCV [1] (serum 65234), 280 Absorbance Units; in the experiment on antibodies against HCV [1] (serum 65241), 641 Absorbance Units; in the experiment with antibodies against HCV [1] (serum 65276) it was 440 Absorbance Units; in the experiment on antibodies against HCV [1] (serum L) it was 306 Absorbance Units.
